{"source": "paper PMC5656322", "about": "“BAK1 is involved in AtRALF1-induced inhibition of root cell expansion” (PLoS Genetics, 2017)", "key": {"[1]": {"tested_on": "cytosolic Ca^2+ in Arabidopsis seedlings", "assay": "Ca^2+ mobilization assay (apoaequorin luminescence)", "assay_type": "in vivo, Arabidopsis thaliana", "description": "The cytoplasmic Ca^2+ assay was performed in Arabidopsis seedlings as described previously. Changes in Ca^2+ levels were measured using an Arabidopsis line homozygous for the single insertion of a transgene encoding a cytoplasmically expressed apoaequorin protein driven by the constitutive promoter 35S [53], here denoted Wt-aeq. Wt-aeq plants were crossed with bak1-3 mutants, and T3 generation plants overexpressing apoaequorin and containing a T-DNA insertion in the BAK1 gene, named bak1-3-aeq, were selected and evaluated using semi-quantitative RT-PCR with specific primers (S1 Table). Arabidopsis seedlings were grown in plates for 4 days. A single seedling was transferred into each well of a 96-well white microplate (Thermo Labsystems) containing 200 μl of medium supplemented with […] coelenterazine cp (Biotium) and incubated in the dark at 24 °C for 16 h. Each well containing a single seedling received recombinant AtRALF1 or acridinium-labeled AtRALF1 at a final concentration of 5, 10 or 100 nM as indicated. The resulting luminescence emission was monitored using a microplate reader (Biotec ELx 800) and 20 time-points for approximately 160 s. The experiments were repeated at least three times using independent biological replicates. The data shown are from one representative experiment."}, "[2]": {"tested_on": "intact Arabidopsis seedlings", "assay": "Binding assay with acridinium-labeled AtRALF34, intact seedlings", "set-up": "species or system Arabidopsis thaliana", "details": "10-fold excess of unlabeled AtRALF1", "description": "Arabidopsis seedlings were grown for 5 days on vertical plates. Roots were homogenized in extraction buffer [300 mM sucrose, 100 mM Tris-HCl pH 7.5, 25 mM EDTA, 25 mM NaF, 1 mM Na2MoO4, 1 mM PMSF and protease inhibitor cocktail (Roche), adjusted to pH 6.2], and the homogenate was spun at 2,000 x g for 10 min at 4 °C. The supernatant was recovered and centrifuged at 100,000 x g for 50 min at 4 °C to precipitate the microsomal pellet. The pellet was resuspended in the extraction buffer plus 0.5% Triton-X. Seedlings or microsomal fractions were placed in 200 μl of medium and incubated with 7 nM acridinium-labeled peptide (acriAtRALF1 or acriAtRALF34) and different concentrations of AtRALF1, AtRALF34 or RALF1(9–49) for 15–20 min at 4 °C on a shaker. After incubation, the seedlings or microsomal fractions were washed three times with the same medium. Unless indicated otherwise, five entire seedlings and approximately 10 ng of microsomal fractions were used per treatment. The resulting luminescence emissions from the acridinium were measured using a microplate reader (Biotec ELx 800) at 2 s after injecting 50 μl of a solution containing 20 mM H2O2 in 0.1 M NaOH. These experiments were repeated at least three times using independent biological replicates. Duplicates were used for each concentration or treatment. The data shown are from one representative experiment. […]"}, "[3]": {"tested_on": "Arabidopsis seedlings, primary root", "details": "wild-type Arabidopsis; ref [5]; cited from earlier work", "description": "To better understand the role of AtRALF1 and BRs in regulating cell expansion, we exposed different mutants and transgenic Arabidopsis plants with altered BR signaling pathways to the peptide hormone AtRALF1 at concentrations that inhibit root growth. Loss-of-function mutants (bri1-301, bsk3-2 and bak1-4), gain-of-function mutants (sud1, bes1-D and bzr1-D) and two overexpressor lines (BRI OX and DWF4 OX) were used in the root growth assays in the presence or absence of 10 μM AtRALF1 (Fig 1A)."}, "[4]": {"tested_on": "BAK1 gene", "details": "Arabidopsis plants; ref [10]; cited from earlier work", "excerpt": "It has been previously shown through microarray experiments that the treatment of Arabidopsis plants with AtRALF1 causes BAK1 gene induction by approximately 1.56-fold. Our data are consistent with that previous observation and add a new gene to the list of AtRALF1-inducible genes. […] The fact that AtRALF1 peptide and BL treatment both induce BAK1 gene expression provides further evidence that BAK1 ..."}}, "note": "Where no end group is shown, it is not given here.", "data": [{"substance": "AtRALF1: root-specific RALF isoform in Arabidopsis; recombinant peptide hormone produced in E. coli (ATTKYISYQSLKRNSVPCSRRGASYYNCQNGAQANPYSRGCSKIARCRS; ends and bridges not checked; cysteine pairing not given here)", "values": [{"measurement": "increase in cytoplasmic Ca^2+", "setting": "[1]; acriAtRALF1 vs unlabeled AtRALF1, apoaequorin seedlings (S17A Fig)", "result": "induced an increase in cytoplasmic Ca^2+"}, {"measurement": "cytosolic calcium increase", "setting": "[1]; bak1-3-aeq plants, 10 and 100 nM", "result": "cytosolic calcium increase similar to plants expressing the apoaequorin gene in a wild-type background"}, {"measurement": "effect of unlabeled AtRALF1 on total acriAtRALF34 binding", "setting": "[2]", "result": "did not alter the total binding"}, {"measurement": "primary root growth inhibition", "setting": "[3]", "result": "inhibits the primary root growth of wild-type Arabidopsis plants"}, {"measurement": "BAK1 gene induction (microarray)", "setting": "[4]", "result": "approximately 1.56 -fold"}]}]}
